Among the data in article PMC11049802 (International Journal of Molecular Sciences, 2024) are Ki values, retold here.

This assay concerns the target E. coli nitroreductase A (NfsA) (Escherichia coli, UniProt P17117). Nature of the assay: steady-state kinetics; competitive inhibition versus NADPH (also reduced as a substrate). The assay is classed as biochemical.

Chain of E. coli nitroreductase A (NfsA) (P17117 whole entry): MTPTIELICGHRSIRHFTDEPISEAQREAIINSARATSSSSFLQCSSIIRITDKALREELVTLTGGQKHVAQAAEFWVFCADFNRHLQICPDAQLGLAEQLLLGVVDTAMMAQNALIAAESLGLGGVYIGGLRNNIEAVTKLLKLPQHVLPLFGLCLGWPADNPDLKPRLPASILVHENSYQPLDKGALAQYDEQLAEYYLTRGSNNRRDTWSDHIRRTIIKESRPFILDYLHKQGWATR

Broadly, the Ki is a dissociation constant, usually derived from enzyme kinetics or from competition with a known ligand. A high value points to lower affinity. The molecule `CC(=O)c1ccc[n+]([C@@H]2O[C@H](COP(=O)([O-])OP(=O)(O)OC[C@H]3O[C@@H](n4cnc5c(N)ncnc54)[C@H](OP(=O)(O)O)[C@@H]3O)[C@@H](O)[C@H]2O)c1` [APADP+] gave a Ki of 150 ± 12 µM.
